Data from patent US20150366943A1, “MOBILIZATION OF HEMATOPOIETIC STEM CELLS FROM BONE MARROW TO BLOOD USING A COMBINATION OF A ROBO4 RECEPTOR ANTAGONIST AND A CXCR4 ANTAGONIST OR hrVEGF-165 AND A CXCR4 ANTAGONIST” (The Regents of the University of California, priority 2012, published 2015).

B1: Slit2: the Robo ligand Slit2, a large secreted protein (protein, UniProt O94813 31-1529, looked up)
Slit homolog 2 protein: QCSCSGSTVDCHGLALRSVPRNIPRNTERLDLNGNNITRITKTDFAGLRHLRVLQLMENKISTIERGAFQDLKELERLRLNRNHLQLFPELLFLGTAKLYRLDLSENQIQAIPRKAFRGAVDIKNLQLDYNQISCIEDGAFRALRDLEVLTLNNNNITRLSVASFNHMPKLRTFRLHSNNLYCDCHLAWLSDWLRQRPRVGLYTQCMGPSHLRGHNVAEVQKREFVCSGHQSFMAPSCSVLHCPAACTCSNNIVDCRGKGLTEIPTNLPETITEIRLEQNTIKVIPPGAFSPYKKLRRIDLSNNQISELAPDAFQGLRSLNSLVLYGNKITELPKSLFEGLFSLQLLLLNANKINCLRVDAFQDLHNLNLLSLYDNKLQTIAKGTFSPLRAIQTMHLAQNPFICDCHLKWLADYLHTNPIETSGARCTSPRRLANKRIGQIKSKKFRCSAKEQYFIPGTEDYRSKLSGDCFADLACPEKCRCEGTTVDCSNQKLNKIPEHIPQYTAELRLNNNEFTVLEATGIFKKLPQLRKINFSNNKITDIEEGAFEGASGVNEILLTSNRLENVQHKMFKGLESLKTLMLRSNRITCVGNDSFIGLSSVRLLSLYDNQITTVAPGAFDTLHSLSTLNLLANPFNCNCYLAWLGEWLRKKRIVTGNPRCQKPYFLKEIPIQDVAIQDFTCDDGNDDNSCSPLSRCPTECTCLDTVVRCSNKGLKVLPKGIPRDVTELYLDGNQFTLVPKELSNYKHLTLIDLSNNRISTLSNQSFSNMTQLLTLILSYNRLRCIPPRTFDGLKSLRLLSLHGNDISVVPEGAFNDLSALSHLAIGANPLYCDCNMQWLSDWVKSEYKEPGIARCAGPGEMADKLLLTTPSKKFTCQGPVDVNILAKCNPCLSNPCKNDGTCNSDPVDFYRCTCPYGFKGQDCDVPIHACISNPCKHGGTCHLKEGEEDGFWCICADGFEGENCEVNVDDCEDNDCENNSTCVDGINNYTCLCPPEYTGELCEEKLDFCAQDLNPCQHDSKCILTPKGFKCDCTPGYVGEHCDIDFDDCQDNKCKNGAHCTDAVNGYTCICPEGYSGLFCEFSPPMVLPRTSPCDNFDCQNGAQCIVRINEPICQCLPGYQGEKCEKLVSVNFINKESYLQIPSAKVRPQTNITLQIATDEDSGILLYKGDKDHIAVELYRGRVRASYDTGSHPASAIYSVETINDGNFHIVELLALDQSLSLSVDGGNPKIITNLSKQSTLNFDSPLYVGGMPGKSNVASLRQAPGQNGTSFHGCIRNLYINSELQDFQKVPMQTGILPGCEPCHKKVCAHGTCQPSSQAGFTCECQEGWMGPLCDQRTNDPCLGNKCVHGTCLPINAFSYSCKCLEGHGGVLCDEEEDLFNPCQAIKCKHGKCRLSGLGQPYCECSSGYTGDSCDREISCRGERIRDYYQKQQGYAACQTTKKVSRLECRGGCAGGQCCGPLRSKRRKYSFECTDGSSFVDEVEKVVKCGCTRCVS

Legend:
[1] = test system: BM cell (HSC, T cell) migration toward Sdf1; test: Modified Boyden (transwell) migration assay; assay type: cell-based, mice
Experimental: BM cells (lineage depleted by magnetic selection, when appropriate), were preincubated at 37° C. for one hour, then placed in the upper chamber of a transwell insert (5 μm pore size). Bottom and/or top wells contained Sdf1 (100 ng/ml) and/or Slit2, as indicated. Cells were allowed to migrate for 2 hrs at 37° C. before harvesting and analysis by flow cytometry.

[2] = test system: hematopoietic stem cells (HSC) and progenitors in peripheral blood
Experimental: Briefly, mice were injected IP with 200 mg/kg of Cytoxan in HBSS (Sigma-Aldrich) on day −1, followed by 2 or 4 sequential daily sub-cutaneous injections of […] rhG-CSF (Humanzyme, Chicago, Ill.). Tissues were analyzed on day 2 or 4, as indicated (FIGS. 3A, 4A). A cohort from each group was injected IV with 5 mg/kg of AMD3100 1 hour prior to sacrifice. For AMD3100 alone, mice were treated with two serial AMD3100 (5 mg/kg) IV injections one hour apart. Peripheral blood, spleen, and bone marrow were isolated one hour later and processed for cell counts and flow cytometry analysis to determine the numbers and frequencies of each cell population.

[3] = test system: hematopoietic stem cells (HSC) and progenitors in peripheral blood; details: previous reports (Bonig 2009; Broxmeyer 2005); cited from earlier work
[4] = test system: HSC localization to the BM; details: three hours post-injection
Experimental: BM cells were labeled with CFSE labeling dye (Invitrogen) for 5 minutes at ambient temperature, followed by antibody labeling and isolation of cKit^+/Lin^−/Sca1^+/CFSE^hi cells by two rounds of FACS. Sorted cells were split in two equal parts and incubated with or without AMD3100 ([…]) on ice for 30 minutes. Cells were washed, pelleted by centrifugation, and resuspended in HBSS at 400,000 cells/ml. Hosts, lethally irradiated 24 hours prior to transplantation, were injected IV with 40,000 cells in 100 μI. Three hours post-transplant, tissues were harvested from individual mice and analyzed for CFSE labeled cells by flow cytometry. Total cell numbers were counted using a Beckman Coulter Cell Counter.

[5] = test system: wt HSC; test: In vitro proliferation of HSC; assay type: cell-based, mice; details: Slit2 4 ug/ml, FIG. 9E
Experimental: HSC and MPP were isolated and sorted from Robo4^−/− and wt mice as previously described. 90-200 cells were plated per well of either strain into a 96-well U-bottom tissue culture plate and cultured for up to 10 days in IMEM medium (Fisher) supplemented with 10% FBS, 25 ng/ml of IL-11, 25 ng/ml of GM-CSF, 25 ng/ml of SCF, 10 ng/ml IL-3 (Cytokines from Peprotech) and Primocin (Invivogen). On days 3, 5, 7, and 10 FITC-labeled spherobeads (BD Bioscience) were added and triplicate samples were analyzed using a FACSAria. Cell expansion rates were calculated based on the number of beads recovered per 10,000 beads added per well.

[6] = test system: HL60 cells; test: HL60 cell migration toward fMLP; assay type: cell-based; details: Slit2, FIG. 11C
Experimental: (A) Purified Sdf1 (100 ng/ml) with and without Slit2 (250 or 500 ng/ml) was placed in bottom wells and the migration of lineage-depleted BM cells after a 2-hour incubation period were quantitated by flow cytometry. […] (B) Slit2 had no effect on T cell migration by itself (black bars) or in combination with Sdf1 (purple bars) in vitro. Experiment performed as in A, except unfractionated BM cells were placed in top wells. (C) Slit2 attenuated HL60 cell migration toward fMLP. Data shown are representative of at least two (C) or three (A and B) independent experiments. Error bars represent SEM. *p<0.03.

| Molecule | cell migration toward Sdf1 after preincubation with AMD3100 ([1]; increasing amounts of AMD3100, FIG. 6A) | concentration giving complete inhibition of HSC migration toward Sdf1 ([1]; preincubation with AMD3100, FIG. 6A) [µM] | efficiency of AMD3100-induced HSC mobilization in Robo4−/− mice compared to wt mice ([2]; FIG. 4E) | progenitor cell numbers in the blood ([2]; one hour after two sequential AMD3100 injections, wt mice) | circulating HSC ([2]; one hour after two sequential AMD3100 injections, wt mice, FIG. 4D) | increase in PB HSC ([2]; wt mice, AMD3100 mobilization, FIG. 4D) [fold] | HSC numbers increase (long-term reconstitution capability of PB cells upon AMD3100 mobilization) [3] | reduction in donor cells localizing to the BM ([4]; AMD3100 preincubation of wt cells, FIG. 6B) [fold] | BM localization of Robo4-deficient cells treated with AMD3100 ([4]; FIG. 6B) | donor cells in the blood stream ([4]; FIG. 6C) | localization to the spleen ([4]; FIG. 6D) | migration of CD4+T cells toward Sdf1 ([1]; Slit2, FIG. 11B) | HSC migration toward Slit2 ([1]; data not shown) | cell migration toward Sdf1 with Slit2 added ([1]; lineage-depleted BM cells, Sdf1 100 ng/ml, Slit2 250 or 500 ng/ml, 2-hour incubation, FIG. 11A) | in vitro proliferation rates of wt HSC [5] | HL60 cell migration toward fMLP [6] |
| --- | --- | --- | --- | --- | --- | --- | --- | --- | --- | --- | --- | --- | --- | --- | --- | --- |
| c1cc(CN2CCCNCCNCCCNCC2)ccc1CN1CCCNCCNCCCNCC1 [AMD3100] | dose-dependent decrease | 25 | much greater | increased robustly | surprisingly few | ~1.5 | 1.5-8 fold | ~2 | further decrease in BM localization | reciprocal increase | no differences |  |  |  |  |  |
| B1 |  |  |  |  |  |  |  |  |  |  |  | not affected | did not detect | No significant differences | did not affect | inhibition |
